Key:
[1] = tested on: Surinam grass; assay: Test B pre-/postemergence herbicide test; assay type: in vivo, Urochloa decumbens; details: for Surinam Grass plant response rating: postemergence
In short: (§1)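 Formulation: non-phytotoxic solvent mix with surfactant. Timing: preemergence on seed and postemergence on 2–18 cm plants, applied concurrently. Readout after 13–15 d greenhouse: visual 0–100 control rating against controls.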

[2] = tested on: rice; assay: Test C flooded paddy test; assay type: in vivo, Oryza sativa
In short: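 Injury scored visually against controls on a 0 (no effect) to 100 (complete control) scale, 12 to 14 days after treatment in greenhouse. Flooded paddy plants treated at 2-leaf stage; postemergence plants at 1- to 4-leaf stage, 2 to 18 cm tall.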

[3] = tested on: large crabgrass; assay: Test B pre-/postemergence herbicide test; assay type: in vivo, Digitaria sanguinalis; details: for Crabgrass, Large plant response rating: postemergence
In short: as §1

[4] = tested on: blackgrass; assay: Test B postemergence herbicide test; assay type: in vivo, Alopecurus myosuroides; details: postemergence, visual rating, scale 0 (no effect) to 100 (complete control)
In short: (§2)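 Visual control ratings, 0–100 versus untreated controls, taken after 13 to 15 days in the greenhouse. Blackgrass received a postemergence spray at the 1- to 4-leaf stage (2–18 cm); ducksalad, umbrella sedge and barnyardgrass were flooded-paddy treated at 2 leaves.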

[5] = tested on: small flower umbrella sedge; assay: Test B flooded paddy test; assay type: in vivo, Cyperus difformis; details: 1000 g ai/ha, scale 0 to 100 (0 no effect, 100 complete control)
In short: as §2

[6] = tested on: wild oat; assay: Test B postemergence herbicide test; assay type: in vivo, Avena fatua; details: postemergence
In short: (§3)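 Formulated test chemicals went onto postemergence plants measuring 2 to 18 cm, at one to four leaves. For the paddy assay, species had reached two leaves. Scoring took place 13–15 days later by eye, relative to untreated plants, using 0 for no effect up to 100 for full control.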

[7] = tested on: rice; assay: Test B flooded paddy test; assay type: in vivo, Oryza sativa; details: 1000 g ai/ha, scale 0 to 100 (0 no effect, 100 complete control)
In short: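 Scale 0–100: zero equals no visible effect, 100 complete control, judged by eye relative to controls. Timing: 13 to 15 days in greenhouse post-treatment. Growth stage at spraying: two leaves (paddy) or one to four leaves, 2–18 cm (postemergence).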

[8] = tested on: barnyardgrass; assay: Test B pre-/postemergence herbicide test; assay type: in vivo, Echinochloa crus-galli; details: for Barnyardgrass plant response rating: postemergence, scale 0 (no effect) to 100 (complete control)
In short: (§4)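 Response was scored visually 13 to 15 days after treatment against untreated greenhouse controls, 0 meaning no effect and 100 complete control. Formulations (solvent mixture plus surfactant) went onto soil after planting, onto foliage of 1- to 4-leaf plants, and onto 2-leaf plants in a flooded paddy set including rice and barnyardgrass.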

[9] = tested on: barnyardgrass; assay: Test B flooded paddy test; assay type: in vivo, Echinochloa crus-galli; details: 1000 g ai/ha, scale 0 to 100 (0 no effect, 100 complete control)
In short: as §2

[10] = tested on: velvetleaf; assay: Test B pre-/postemergence herbicide test; assay type: in vivo, Abutilon theophrasti; details: for Velvetleaf plant response rating: postemergence
In short: as §1

[11] = tested on: morningglory; assay: Test B pre-/postemergence herbicide test; assay type: in vivo, Ipomoea coccinea; details: for Morningglory plant response rating: postemergence
In short: as §4

[12] = tested on: giant foxtail; assay: Test B pre-/postemergence herbicide test; assay type: in vivo, Setaria faberi; details: for Foxtail, Giant plant response rating: postemergence
In short: as §1

[13] = tested on: pigweed; assay: Test B pre-/postemergence herbicide test; assay type: in vivo, Amaranthus retroflexus; details: for Pigweed plant response rating: postemergence
In short: as §1

[14] = tested on: wheat; assay: Test B postemergence herbicide test; assay type: in vivo, Triticum aestivum; parameters: key to Wheat plant response rating: 0 = no effect, 100 = complete control; details: postemergence
In short: as §3

[15] = tested on: corn; assay: Test B pre-/postemergence herbicide test; assay type: in vivo, Zea mays; details: for Corn plant response rating: postemergence
In short: as §1

[16] = tested on: ducksalad; assay: Test C flooded paddy test; assay type: in vivo, Heteranthera limosa
[17] = tested on: cocklebur; assay: Test B pre-/postemergence herbicide test; assay type: in vivo, Xanthium strumarium; details: for Cocklebur plant response rating: postemergence, scale 0 (no effect) to 100 (complete control)
In short: as §4

[18] = tested on: barnyardgrass; assay: Test C flooded paddy test; assay type: in vivo, Echinochloa crus-galli
In short: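 Greenhouse test with a 12–14 day hold after application and visual comparison with controls. Emerged plants were 1- to 4-leaf stage (2–18 cm) when sprayed postemergence, and the paddy barnyardgrass was at 2 leaves under flooded conditions. 100 = complete control.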

[19] = tested on: smallflower umbrella sedge; assay: Test C flooded paddy test; assay type: in vivo, Cyperus difformis
[20] = tested on: rice; assay: Test B pre-/postemergence herbicide test; assay type: in vivo, Oryza sativa; details: 0 = no effect, 100 = complete control, preemergence
In short: as §1

[21] = tested on: ducksalad; assay: Test B flooded paddy test; assay type: in vivo, Heteranthera limosa; details: 1000 g ai/ha, scale 0 to 100 (0 no effect, 100 complete control)
In short: as §2

[22] = tested on: lambsquarters; assay: Test B pre-/postemergence herbicide test; assay type: in vivo, Chenopodium album; details: for Lambsquarters plant response rating: postemergence
In short: as §1

[23] = 125 g ai/ha, 0 = no effect, 100 = complete control, preemergence
[24] = 500 g ai/ha, visual rating, 0 = no effect, 100 = complete control, preemergence
[25] = 125 g ai/ha, visual rating, scale 0 (no effect) to 100 (complete control)
[26] = 500 g ai/ha, scale 0 to 100, 0 is no effect, 100 is complete control
[27] = 125 g ai/ha, scale 0 to 100 (0 no effect, 100 complete control)
[28] = 250 g ai/ha, scale of 0 to 100, 0 is no effect, 100 is complete control
[29] = 500 g ai/ha, visual rating after 12 to 14 days, scale 0 to 100 (0 no effect, 100 complete control)

SMILES: CCn1nc(C(C)(C)C)cc1C(=O)Nc1cccc(C(=O)N2CCOCC2)n1 [Compound 247]
- Surinam Grass plant response rating (0 to 100 scale) [1, 23]: 20
- Plant response rating, Surinam Grass [1, 24]: 50
- Surinam Grass plant response rating [1, 25]: 10
- Surinam Grass plant response rating [1, 26]: 20
- Rice plant response rating ([2]; 62 g ai/ha, scale 0 to 100): 0
- Rice plant response rating [2, 27]: 0
- Rice plant response rating [2, 28]: 20
- Plant response rating, Rice [2, 29]: 75
- Crabgrass, Large plant response rating (0 to 100 scale) [3, 23]: 20
- Plant response rating, Crabgrass, Large [3, 24]: 80
- Crabgrass, Large plant response rating [3, 25]: 10
- Crabgrass, Large plant response rating [3, 26]: 10
- Blackgrass plant response rating ([4]; 125 g ai/ha): 0
- Blackgrass plant response rating ([4]; 500 g ai/ha): 0
- Sedge, Umbrella plant response rating [5]: 70
- Oat, Wild plant response rating [6, 25]: 0
- Oat, Wild plant response rating [6, 26]: 10
- Rice plant response rating [7]: 80
- Barnyardgrass plant response rating (0 to 100 scale) [8, 23]: 30
- Plant response rating, Barnyardgrass [8, 24]: 80
- Barnyardgrass plant response rating ([8]; 125 g ai/ha, visual rating): 0
- Barnyardgrass plant response rating ([8]; 500 g ai/ha, visual rating): 10
- Barnyardgrass plant response rating [9]: 70
- Velvetleaf plant response rating (0 to 100 scale) [10, 23]: 20
- Plant response rating, Velvetleaf [10, 24]: 100
- Velvetleaf plant response rating [10, 25]: 30
- Velvetleaf plant response rating [10, 26]: 70
- Morningglory plant response rating (0 to 100 scale) [11, 23]: 0
- Plant response rating, Morningglory [11, 24]: 10
- Morningglory plant response rating [11, 25]: 20
- Morningglory plant response rating [11, 26]: 30
- Foxtail, Giant plant response rating (0 to 100 scale) [12, 23]: 10
- Plant response rating, Foxtail, Giant [12, 24]: 70
- Foxtail, Giant plant response rating [12, 25]: 10
- Foxtail, Giant plant response rating [12, 26]: 20
- Pigweed plant response rating (0 to 100 scale) [13, 23]: 100
- Plant response rating, Pigweed [13, 24]: 100
- Pigweed plant response rating [13, 25]: 60
- Pigweed plant response rating [13, 26]: 60
- Wheat plant response rating [14, 25]: 0
- Wheat plant response rating [14, 26]: 0
- Corn plant response rating (0 to 100 scale) [15, 23]: 0
- Plant response rating, Corn [15, 24]: 30
- Corn plant response rating [15, 25]: 0
- Corn plant response rating [15, 26]: 20
- Ducksalad plant response rating ([16]; 62 g ai/ha, scale 0 to 100): 0
- Ducksalad plant response rating [16, 27]: 0
- Ducksalad plant response rating [16, 28]: 0
- Plant response rating, Ducksalad [16, 29]: 80
- Cocklebur plant response rating (0 to 100 scale) [17, 23]: 0
- Plant response rating, Cocklebur [17, 24]: 0
- Cocklebur plant response rating ([17]; 125 g ai/ha, visual rating): 0
- Cocklebur plant response rating ([17]; 500 g ai/ha, visual rating): 30
- Barnyardgrass plant response rating ([18]; 62 g ai/ha, scale 0 to 100 (0 no effect, 100 complete control)): 0
- Barnyardgrass plant response rating [18, 27]: 0
- Barnyardgrass plant response rating [18, 28]: 0
- Plant response rating, Barnyardgrass [18, 29]: 0
- Sedge, Umbrella plant response rating ([19]; 62 g ai/ha, scale 0 to 100): 0
- Sedge, Umbrella plant response rating [19, 27]: 0
- Sedge, Umbrella plant response rating [19, 28]: 15
- Plant response rating, Sedge, Umbrella [19, 29]: 75
- Rice plant response rating (0 to 100 scale) ([20]; 125 g ai/ha): 10
- Plant response rating, Rice ([20]; 500 g ai/ha, visual rating): 40
- Ducksalad plant response rating [21]: 80
- Lambsquarters plant response rating (0 to 100 scale) [22, 23]: 80
- Plant response rating, Lambsquarters [22, 24]: 100
- Lambsquarters plant response rating [22, 25]: 60
- Lambsquarters plant response rating [22, 26]: 70

— US20060069132A1, “Azolecarboxamide herbicides” (priority 2004, published 2006)
